From paper PMC4464186 (EXCLI Journal, 2014)

Columns and labels:
[1] = test system: metrazol-induced convulsion; conditions: metrazol-induced convulsion model, ref Sridhar et al., 2002, cited from earlier work
mice = format: in vivo; conditions: rotarod; doses up to 300 mg/kg; 0.5 and 4.0 h
Albino mice = format: in vivo; conditions: 100 mg/kg i.p.; with respect to control

Compound	protection ([1]; at 100 mg kg^-1) [%]	ED50 [1] [mg/kg]	neurotoxicity (motor impairment), in words (mice)	% Increased of immobility (Albino mice) [%]
Cc1ccc2c(c1)C(=Nc1ccc(Cl)cc1)C(=O)N2 [3-(4-Chlorophenylimino)-5-methyl-1,3-dihydro-indol-2-one]	87	53.61		
O=c1nc2[nH]c3ccc(Cl)cc3c2n[nH]1 [5e, 8-chloro-2H-[1,2,4]triazino[5,6-b]indol-3(5H)-one]			no motor impairment effect	54.39
O=c1nc2[nH]c3c(Br)cc(Br)cc3c2n[nH]1 [5i, 6,8-dibromo-2H-[1,2,4]triazino[5,6-b]indol-3(5H)-one]				37.68
Cn1c2nc(=O)[nH]nc2c2cc(Br)cc(Br)c21 [5k, 6,8-dibromo-5-methyl-2H-[1,2,4]triazino[5,6-b]indol-3(5H)-one]				45.96
NC(=O)N1c2ccccc2C=Cc2ccccc21 [Carbamazepine, reference compound]				58.63
